Measurements published in patent US20250052985A1, “SYSTEM AND METHOD FOR QUANTITATIVE PHASE IMAGING FOR MULTI-PARAMETRIC SCREENING OF TUMOR THERAPY RESPONSE” (UNIVERSITY OF UTAH RESEARCH FOUNDATION, priority 2023, published 2025).
pEC50: −log10 of the molar value. Where “and” joins values, the source holds several entries; their conditions need not be identical. Identical values can stand only once. Values belong to the compound of their own block, whether it stands above or below them.

What was measured:
[1] = tested on: BT-474 cells; experiment: cells; details: for Hill Slope: BT-474, Hill fit; for ToR 20 μM: time of response at 20 μM; for pEC50: Homo sapiens
Text: (§1) In some embodiments, breast cancer cell lines are imaged, representing diverse clinical subtypes, summarized in Table 2 below, using a QPI microscope (FIG. 1A) based on differential phase contrast (DPC) microscopy and phase reconstruction via a QPI microscope system. DPC is used for image acquisition and phase reconstruction because DPC's flexible design may be customized for high throughput phase measurements. […] As illustrated in the embodiment of FIG. 1A, a QPI microscope system 100 conducts assays in a 96-well plate (e.g., a well-plate 105) with 6-point dose response curves and up to five therapies in triplicate including solvent controls, summarized in Table 4 below. As described below, in reference to FIG. 1A, a growth response of cells is measured noninvasively using QPI via a QPI microscope system 110 before being assayed using a CTG reader 115.
(§2) FIG. 1B illustrates a timeline plot 200 showing two plates (e.g., two, separate well-plates 105) set up in parallel to measure cell viability. With reference to FIG. 1B, two plates are set-up simultaneously for each experiment. A first plate 205 is incubated for 27 hours (h) post drug exposure prior to CTG analysis (3 h equilibration+24 h of imaging), which measures cell adenosine triphosphate (ATP) content as a surrogate for cell viability. A second plate 210 is imaged for 72 h after 3 h equilibration (e.g., 75 h) and followed by CTG. […] The imaging locations are imaged for 72 h, as shown by images 1700-1715 of FIG. 7.
(§3) In some embodiments, a dose-dependent change in growth, as indicated by a change in the rate of mass accumulation or loss, is a parameter that can be extracted from QPI dose-response data. […] Individual specific growth rate measurements are indicated by points in the distribution of the graph 1200 of FIG. 2A. Blue is indicative of the DMSO control and red is indicative of doxorubicin. The black outline is a kernel density function fit to the distribution of specific growth rates for each condition (e.g., *p<0.05, **p<0.01). In some embodiments, the average SGR of each condition is fit to a sigmoid dose-response curve using a Hill equation. For example, computed logistic fit parameters using a 4-parameter Hill model via the QPI microscope system 110 for all conditions are summarized in Tables 5-8 below. To determine if there is a response, as illustrated by FIG. 2B, the QPI microscope system 110 tests goodness of fit, adjusts for degrees of freedom using an F-test at significance p<0.01 by comparison to a flat line, as an indicator of no response. For cases with a better fit to the Hill equation, the 4-parameter Hill curve may be used by the QPI microscope system 110 to determine the EC50, a measure of sensitivity to therapy because it represents the effective concentration at which 50% of the cells respond to therapy, as illustrated by FIG. 10. […] A 4-parameter Hill curve is fit to each dose response plot to extract the depth of response and EC50 for each cell/drug pair. A flat line represents no response due to failure of the F-test to reject the null hypothesis that the logistic fit is indistinguishable from a flat line. […] Each color indicates a different drug or therapy used.

[2] = tested on: MCF-7 cells; experiment: cells; details: for Max Asymptote / Min Asymptote: MCF-7, 4-parameter Hill fit of mean SGR vs concentration, one line per replicate; for Hill Slope: MCF-7, Hill fit; for EC50: EC50 in μM per Table 1; for DoR QPI: depth of response; for ToR 20 μM: time of response at 20 μM
Text: as §1, §2, §3

[3] = tested on: BT-474 cells; experiment: CellTiter-Glo (CTG) ATP viability assay, BT-474; assay type: cell-based; details: for Min Asymptote: BT-474, Hill fit of luminescence normalized to solvent control, one line per replicate
Method: (§4) CTG (e.g., read by the CTG reader 115) is a cell viability assay that quantifies the amount of ATP present at the end of an experiment as an indicator of the number of live cells. The electronic controller 155 measures ATP content in each condition as a readout by a luminescent signal, which is normalized by the luminescence of the control (e.g., a control well) to determine cell viability relative to on-plate controls. In some embodiments, the CTG assay is performed by first removing 100 μL of media from each well on the well-plate 105, which is then replaced with an equal amount of CellTiter-Glo reagent (e.g., Promega, G7572). Assayed plates may be shaken at 500 RPM for 20 minutes and allowed to rest for 10 minutes. In some instances, 100 μL of volume from each well is transferred to a white 96-well plate (e.g., Perkin Elmer, 6005680). The electronic controller 155 collects luminescence data from each well using an Envision plate reader (e.g., Perkin Elmer) and normalized against the solvent control to measure ATP content. The electronic controller 155 fits a 4-parameter hill curve to the dose response to determine the EC50 and depth of response.

[4] = tested on: primary tumor cells (Patient #1); experiment: QPI on primary cells after two-week expansion, Patient #1; assay type: cell-based
Method: In some embodiments, the QPI microscope system 110 applies multiparametric QPI to primary cells from two clinical samples stored in cell bank at, for example, the Huntsman Cancer Institute plated after thawing from liquid nitrogen and CD45+ depleted to reduce the number of immune cells, as shown in FIG. 26.
For example, the primary cells are plated as a 2D monolayer in Clever's complete medium in a 96 well plate (e.g., the well-plate 105) and are allowed to acclimate to cell culture conditions for 18 h prior to dosing with treatments assigned to each patient by a physician. […] The image 3600 is a QPI image of primary cells from a direct from thaw patient derived sample. […] The graph 3610 is a histogram of cell mass used to computationally filter, using the electronic controller 155, for low mass cells (shown in red in the image 3600 and the graph 3605). By using a cutoff between the peaks at, for example, 72 pg, low mass cells can be isolated that are not growing and remove such cells from analysis. […] Using this cutoff, the electronic controller 155 measures the dose response for cells in each condition to determine the EC50 and DoR for each condition studied for the primary cells, as shown in the graph 3615. The graph 3615 is a dose response plot for primary cells treated with therapies assigned to the patient by a physician. […] In some embodiments, the electronic controller 155 determines a drug response in cells from patient derived samples. For example, the electronic controller 155 determines the drug response in therapy treatment samples from patient derived samples.
In some embodiments, both samples are expanded from primary cells in 2D culture using optimized ex vivo culture conditions for 2 weeks, changing media every 3 days to further purify the tumor cells, as shown in a workflow 3700 of FIG. 27.

[5] = tested on: MDA-MB-231 cells; experiment: Quantitative phase imaging (QPI) growth response, MDA-MB-231; assay type: cell-based; design: DoR QPI: scale not given here; ToR 20 μM: unit not given here
Text: as §1, §2, §3

[6] = tested on: MCF-7 cells; experiment: CellTiter-Glo (CTG) ATP viability assay, MCF-7; assay type: cell-based
Method: as §4

[7] = 72 h QPI, BT-474, 4-parameter Hill fit of mean SGR vs concentration, one line per replicate
[8] = 72 h QPI, MDA-MB-231, 4-parameter Hill fit of mean SGR vs concentration, one line per replicate

Compound: CS(=O)(=O)CCNCc1ccc(-c2ccc3ncnc(Nc4ccc(OCc5cccc(F)c5)c(Cl)c4)c3c2)o1 [Lapatinib]
type of response (cytostatic/cytotoxic) [1]: cytotoxic response | Max Asymptote ([1]; 24 h QPI, BT-474, 4-parameter Hill fit of mean SGR vs concentration, one line per replicate): 0.009114 and 0.01239 and 0.01012 | Hill Slope ([1]; 24 h QPI): 1.0728 and 1.0622 and 0.7683 | Max Asymptote [1, 7]: −0.005233 and −0.002968 and −0.002717 | Min Asymptote [1, 7]: 0.008681 and 0.009519 and 0.009646 | Hill Slope ([1]; 72 h QPI): 0.8265 and 1.1159 and 1.0735 | growth rate and heterogeneity as concentration increases ([1]; BT-474, FIG. 22): decrease in growth rate and heterogeneity | DoR QPI ([1]; BT-474 cell line, depth of response, QPI): 1.4 | ToR 20 μM ([1]; BT-474 cell line): −1.0616 | ToR faster than in MCF-7 ([1]; BT-474 vs MCF-7): 60 h | decrease in heterogeneity relative to MCF-7 ([1]; BT-474 vs MCF-7): 30% | pEC50 ([1]; BT-474, BT-474, QPI): ~5.82 | pEC50 ([1]; BT-474, read-out: EC50, QPI, BT-474 cell line, QPI growth rate): 5.80 | pEC50 ([1]; BT-474, read-out: EC50, SD, BT-474 cell line, EC50 of the standard deviation): 5.78 | type of response (cytostatic/cytotoxic) [2]: cytostatic response | Max Asymptote ([2]; 24 h QPI): 0.02919 | Min Asymptote ([2]; 24 h QPI): 0.0206 | Hill Slope ([2]; 24 h QPI): 1.4871 | Max Asymptote ([2]; 72 h QPI): 0.01659 | Min Asymptote ([2]; 72 h QPI): 0.02661 | Hill Slope ([2]; 72 h QPI): 1.4826 | EC50 ([2]; Homo sapiens, MCF7, 24 h, read-out: log10(EC50), 24 h QPI, MCF-7, Hill fit (converted)): 1.92 µM | EC50 ([2]; Homo sapiens, MCF7, 72 h, read-out: log10(EC50), 72 h QPI, MCF-7, Hill fit (converted)): 1.8 µM | pEC50 ([2]; Homo sapiens, MCF7, MCF-7, QPI): ~5.82 | pEC50 ([2]; Homo sapiens, MCF7, read-out: EC50, QPI, MCF-7 cell line, QPI growth rate): 5.82 | DoR QPI ([2]; MCF-7 cell line): 0.4 | ToR 20 μM ([2]; MCF-7 cell line): 38.2 | Hill Slope ([3]; 24 h CTG, BT-474, Hill fit): 0.4575 | Min Asymptote ([3]; 24 h CTG): 0.2926 | Hill Slope ([3]; 72 h CTG, BT-474, Hill fit): 0.6736 and 1.021 | log10(EC50) ([3]; 72 h CTG, BT-474, Hill fit): 0.04318 | Min Asymptote ([3]; 72 h CTG): 0.3102 and 0.4062 (2×) | DoR CTG ([3]; BT-474 cell line, depth of response, CellTiter-Glo): 0.6 | EC50 ([3]; Homo sapiens, BT-474, 24 h, 24 h CTG, BT-474, Hill fit, read-out: log10(EC50) (converted)): 165 µM | pEC50 ([3]; Homo sapiens, BT-474, BT-474 cell line, CellTiter-Glo, read-out: EC50, CTG): 5.77

EC50 compared with eribulin ([4]; Patient #1): lower EC50 than eribulin
Compound: Nc1ccn([C@@H]2O[C@H](CO)[C@@H](O)C2(F)F)c(=O)n1 [gemcitabine]

Compound: N.N.O=C([O-])C1(C(=O)[O-])CCC1.[Pt+2] [Carboplatin]
ToR 20 μM ([1]; BT-474 cell line): 38.7 | Max Asymptote ([2]; 72 h QPI): 0.007047 and 0.01142 | Min Asymptote ([2]; 72 h QPI): 0.01994 and 0.02292 | Hill Slope ([2]; 72 h QPI): 3.7715 and 2.34 | DoR QPI ([2]; MCF-7 cell line): 0.6 | ToR 20 μM ([2]; MCF-7 cell line): 18.1 | pEC50 ([2]; read-out: EC50, QPI, MCF-7 cell line, QPI growth rate): 4.85 | Max Asymptote [5, 8]: 0.01609 and 0.02303 and 0.02092 | Min Asymptote [5, 8]: 0.02861 and 0.03045 and 0.02714 | growth rate and heterogeneity over time ([5]; MDA-MB-231, 20 μM): decrease in growth rate with little effect on heterogeneity relative to the control | growth rate and heterogeneity as concentration increases ([5]; MDA-MB-231, FIG. 22): decrease in growth rate and heterogencity simultaneously | pEC50 ([5]; MDA-MB-231 cell line, QPI growth rate, read-out: EC50, QPI): 5.04 | DoR QPI ([5]; MDA-MB-231 cell line, depth of response, QPI): 0.3 | ToR 20 μM ([5]; MDA-MB-231 cell line, time of response at 20 μM): 18.3 | Hill Slope ([6]; 72 h CTG, MCF-7, Hill fit): 3.126 and 5.114 | log10(EC50) ([6]; 72 h CTG, MCF-7, Hill fit): −1.201 and −1.172 | Min Asymptote ([6]; 72 h CTG, MCF-7, Hill fit of luminescence normalized to solvent control, one line per replicate): 0.5048 (2×) and 0.6498 | EC50 ([6]; MCF-7 cell line, CellTiter-Glo, read-out: EC50, CTG (converted)): 15.5 µM | DoR CTG ([6]; MCF-7 cell line, depth of response, CellTiter-Glo): 0.4

Compound: C=C1C[C@@H]2CC[C@@]34C[C@H]5O[C@H]6[C@@H](O3)[C@H]3O[C@H](CC[C@@H]3O[C@H]6[C@H]5O4)CC(=O)C[C@@H]3[C@@H](OC)[C@@H](C[C@H](O)CN)O[C@H]3C[C@H]3O[C@@H](CC[C@@H]1O2)C[C@@H](C)C3=C [eribulin]
overall response relative to doxorubicin or gemcitabine ([4]; Patient #1, concentration just above the EC50, normalized mass over time): lesser overall response | DoR relative to the other therapies tested ([4]; Patient #1, dose response plots): lower DoR | growth rate after the first day ([4]; Patient #1, rest of the experiment): approximately 0.0012 h−1
